Data as given in patent US20060142271A1, “Novel lapacho compounds and methods of use thereof” (priority 2002, published 2006).

Legend:
HaCaT cells [1] = assay: HaCaT keratinocyte proliferation assay (cell counting); assay type: cell-based, human
Protocol: Anthralin, an antipsoriatic drug, was used as a positive control. Antiproliferative activity was measured directly by counting the dispersed cells under a phase-contrast microscope.
HaCaT keratinocyte proliferation assay and LDH release were described previously in full detail (Muller et al. J. Med. Chem. 39: 3132-3138, 1996; Müller et al. J. Med. Chem. 37: 1660-1669, 1994). For the cancer cell line studies, exponentially growing cells were seeded at 1,000 cells per well in six-well plates and allowed to attach for 24 h. Compounds of the invention or β-lapachone, solubflized in DMSO, were added to the wells in micromolar concentrations. Control wells were treated with equivalent volumes of DMSO. After 4 h the supernatant was removed and fresh medium was added. Cultures were observed daily for 10-15 days and then were fixed and stained. Colonies of greater than 30 cells were scored as survivors. […]

HaCaT cells [2] = assay type: cell-based, human
Protocol: (§1) HaCaT keratinocyte proliferation assay and LDH release were described previously in full detail (Muller et al. J. Med. Chem. 39: 3132-3138, 1996; Müller et al. J. Med. Chem. 37: 1660-1669, 1994). For the cancer cell line studies, exponentially growing cells were seeded at 1,000 cells per well in six-well plates and allowed to attach for 24 h. Compounds of the invention or β-lapachone, solubflized in DMSO, were added to the wells in micromolar concentrations. Control wells were treated with equivalent volumes of DMSO. After 4 h the supernatant was removed and fresh medium was added. Cultures were observed daily for 10-15 days and then were fixed and stained. Colonies of greater than 30 cells were scored as survivors.
The cytotoxicity of naphthoquinones has been thought to result, at least in part, from reactive oxygen species, generated during redox cycling between the […] and reduction products (Munday, R., Free Radic. Biol. Med., 22, 689-695, 1997), which cause peroxidative damage to membrane lipids. To assess the correlation of keratinocyte growth inhibition with membrane damage, the release of lactate dehydrogenase from the treated cells was also quantitated.

[3] = tested on: colon cancer cell line DLD1; assay: Cancer cell line colony survival assay, DLD1; assay type: cell-based, human; conditions: Homo sapiens, DLD-1, read-out: AA in Cancer Cell Lines IC50 (μM) DLD1
Protocol: as §1

[4] = tested on: colon cancer cell line SW480; assay: Cancer cell line colony survival assay, SW480; assay type: cell-based, human; conditions: Homo sapiens, SW480, read-out: AA in Cancer Cell Lines IC50 (μM) SW480
Protocol: as §1

[5] = tested on: breast cancer cell line MCF7; assay: Cancer cell line colony survival assay, MCF7; assay type: cell-based, human; conditions: Homo sapiens, MCF7, read-out: AA in Cancer Cell Lines IC50 (μM) MCF7
Protocol: as §1

human cancer cell lines = conditions: wide spectrum of human cancer cell lines; read-out: antineoplastic activity against human cancer cell lines (IC50); cited from earlier work
[6] = tested on: normal fresh or proliferating human PBMC; conditions: cited from earlier work
[7] = tested on: human keratinocyte cell line HaCaT; conditions: Müller et al., J. Nat. Prod. 62 (1999); cited from earlier work
[8] = tested on: cancer cell lines and normal cells; conditions: Li et al., PNAS 2003; cited from earlier work

SMILES: CC1(C)CCC2=C(O1)c1ccccc1C(=O)C2=O [β-lapachone, reference compound]
- inhibition of HaCaT cell proliferation (in words) (HaCaT cells [1]; HaCaT cells): inhibited cell proliferation
- IC50 (HaCaT cells [1]; Homo sapiens, HaCaT, read-out: AA in HaCaT Cells IC50 (μM)): 0.7 µM
- LDH release compared to vehicle control (in words) (HaCaT cells [2]): significant LDH release as compared to vehicle
- LDH (mU) (HaCaT cells [2]; human, 2 μM): 329 mU
- IC50 [3]: 4 µM
- IC50 [4]: 4 µM
- IC50 [5]: ≤ 1 µM
- IC50 (human cancer cell lines): 1 to 10 µM
- cytotoxic effects on normal human PBMC [6]: No cytotoxic effects were observed
- inhibition of keratinocyte growth in HaCaT model (in words) [7]: inhibition of keratinocyte growth comparable to the antipsoriatic drug anthralin
- induction of apoptosis in cancer versus normal cells [8]: induces apoptosis only in cancer cell lines and not in normal cells
